The values below come from patent US8895032B2, “Dendritic nano-antioxidants” (Central Michigan University, priority 2009, dated 2014).

Where “and” joins values, the source holds several entries; their conditions need not be identical. Equal entries are not always repeated. Where two headings read alike, the source gives them in different places.

A short description of one data set: DPPH radical assay. The settings on record: for time to reach plateau / steady state with DPPH•: 50 μM syringaldehyde, 12.5 μM Trolox and ascorbic acid, methanol, room temperature, 515 nm; for IC50: read-out: DPPH IC50 at 120 min, Example 15. On the technique in general: DPPH is a stable violet radical that fades when it is reduced.
A short description of data set [1]: ABTS radical cation decolorization assay. Format: biochemical. The settings on record: for IC50: final concentration in the cuvet, read-out: concentration at which 50% inhibition of ABTS•+ was observed; for Slope of % decrease in absorbance at 6 min versus antioxidant concentration: linear regression, concentration in μM; for TEAC: slope divided by that of Trolox, % decrease in A734 at 6 min, ethanol. The source says: We have tested AO activity of G1 (13) using ABTS as a radical source using a previously reported spectroscopic assay. The AO activity of the G1 (13) was compared to those of syringaldehyde, gallic acid, and vitamin C. If the phenolic OH group is the radical scavenging site, the expected AO activity of the G1 (13) should be 4 fold higher than that of syringaldehyde and 1.3 fold higher than that of gallic acid (which has three phenolic OH groups).
ABTS radical cation decolorization assay was used as previously described (Ozgen, et al. J. Agric. Food Chem. 2006, 54, 1151-1157, incorporated herein by reference in its entirety). Like the DPPH assay, this was also a decolorization assay and measured absorbance decrease at 734 nm as the ABTS radical (ABTS•+) is quenched by the antioxidant. The solvent used for the assay was ethanol. ABTS reagent was added to 1.0 mL solvent in a cuvet to bring the absorbance to 0.7. A 10 μL sample of antioxidant was then added, mixed, and the absorbance monitored at 734 nm for 6 min. Antioxidant concentrations were 14.4 μM Trolox, 11.4 μM ascorbic acid, 15.4 μM syringaldehyde, and 3 μM compound 1. The % decrease in absorbance at 6 min was plotted against antioxidant concentrations. The gradient of the line obtained by linear regression for a given antioxidant was divided by that obtained for Trolox to yield Trolox equivalent antioxidant (TEAC) values. All samples were made in ethanol and run in triplicates and at room temperature.

Data set [2] can be described thus: beta-carotene-linoleate assay. The data set is classed as biochemical. The settings on record: 50° C., 180 min, 470 nm. From the text:
The ability of the dendritic antioxidants 1, 2, and 3 to protect linoleic acid against free radical damage was examined by the beta-carotene-linoleate model (Jayaprakasha, G. K., et al. Food Chem. 2001, 73, 285, incorporated herein by reference in its entirety). In the absence of an antioxidant, hydroperoxides formed from linoleic acid oxidation bleach the highly unsaturated beta-carotene by a free-radical-mediated phenomenon. The bleaching of the reddish-orange color of beta-carotene was monitored at 470 nm in the presence of various concentrations of antioxidant. The % absorbance (corrected for control without antioxidant) was determined at each antioxidant concentration after incubation at 50° C. for 180 min. The % A470 nm values were determined as follows: % A470 nm=[(At(180 min)/At(0 min))×100]−[(Ac(180 min)/Ac(0 min))×100], wherein At(180 min)=absorbance at 470 nm of antioxidant sample incubated at 50° C. for 180 min, At(0 min)=absorbance at 470 nm of antioxidant sample incubated at 50° C. for 0 min, Ac(180 min)=absorbance at 470 nm of control sample (without antioxidant) incubated at 50° C. for 180 min, and Ac(0 min)=absorbance at 470 nm of control sample (without antioxidant) incubated at 50° C. for 0 min. […] In FIG. 24, protection of linoleic acid from oxidation by various antioxidants is shown for compound 1 (□), compounds 2 and 3 (•), quercetin (x), and Trolox (Δ).

On to `Cc1c(C)c2c(c(C)c1O)CCC(C)(C(=O)O)O2` (centres unmarked) [Trolox, 6-hydroxy-2,5,7,8-tetramethylchroman-2-carboxylic acid], for which, in “DPPH radical assay”, the “# of DDPH• reduced per antioxidant molecule (1/stoichiometry)” value worked out at 1.8; the “Antioxidant Capacity Relative to Trolox, DPPH” value is 1; the IC50 was determined as 30 µM. The “time to reach plateau / steady state with DPPH•” value in the data set “DPPH radical assay” (5 μM compound 1) is on record as not above 2 min. Moreover, in data set [1], the “Antioxidant Capacity Relative to Trolox, ABTS” value was 1; the IC50 was approximately 10 µM; the “Slope of % decrease in absorbance at 6 min versus antioxidant concentration” value was 4; the TEAC is 1. Besides, the “time to reach a plateau of ABTS•+ absorbance suppression” value in data set [1] (14.4 μM Trolox, 11.4 μM ascorbic acid) is on record as “one”. The “protection of linoleic acid from oxidation” value in data set [2] is “more effective than compounds 2 and 3 (and quercetin) at lower concentrations”.
On to `COc1cc(CN(Cc2ccc(CN(Cc3cc(OC)c(O)c(OC)c3)Cc3cc(OC)c(O)c(OC)c3)cc2)Cc2cc(OC)c(O)c(OC)c2)cc(OC)c1O` [Compound 1], for which, in the data set “DPPH radical assay”, the “# of DDPH• reduced per antioxidant molecule (1/stoichiometry)” value is listed as 8.8; the “Antioxidant Capacity Relative to Trolox, DPPH” value was 4.9; the IC50 turned out to be 4 µM. Also, in “DPPH radical assay” (5 μM compound 1), the “DPPH• remaining at plateau” value is listed as 46%, the “DPPH• remaining in two minutes” value came out at 60% and the “time to reach plateau / steady state with DPPH•” value is reported as “approximately 45 min”. The “decrease in DDPH•” value in the data set “DPPH radical assay” (5 μM solution) came to 60%. For the same compound, in “DPPH radical assay” (listed as compound 1), the “Antioxidant Capacity Relative to Trolox, DPPH” value is ~5 and 4.9; the “DPPH antioxidant capacity, times better than ascorbic acid” value is ~5 times and 4.9 times. Also, in data set [1], the “Antioxidant Capacity Relative to Trolox, ABTS” value is given as 8.5; the IC50 is approximately 1.5 µM; the “Slope of % decrease in absorbance at 6 min versus antioxidant concentration” value was 33.9; the TEAC is listed as 8.48. Further, in data set [1] (ABTS as radical source), the “AO activity higher than that of gallic acid” value is on record as 3 fold, the “AO activity higher than that of syringaldehyde” value was 7 fold and the “AO activity higher than that of vitamin C” value came out at 7.6 fold. Besides, in data set [1] (based on TEAC), the “ABTS, times better than ascorbic acid” value was 9.4 times and the “ABTS, times better than syringaldehyde” value was found to be 8.7 times. Also, the “protection of linoleic acid from oxidation” value in data set [2] is on record as “most effective”.
